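Dose response: 5 concentrations. Exposure: 48 h. Format: 96-well plates. Endpoint: linear interpolation; highest concentration if not reached. GI50 = concentration required for 50% inhibition of growth. The concentration for full growth arrest is given as TGI.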

Some test systems named below: OVCAR-5 ovarian; RPMI-8226 leukemia; M14 melanoma; NCI-H460 lung; SNB-75 CNS; SF-295 CNS; CAKI-1 renal; KM12 colon; U251 CNS; HOP-62 NSCLC.
Common to all, as to experiment: DTP human tumour cell line panel, 48 h

With `Cn1c2c(c3ccccc31)CC1c3c(c4ccccc4n3C)CC21` (stereo not given), the TGI in the assay with OVCAR-5 ovarian, with RPMI-8226 leukemia, in the assay on M14 melanoma, in the assay on NCI-H460 lung, with SNB-75 CNS and in the assay with SF-295 CNS was greater than 100 µM throughout. Besides, the TGI in the assay with CAKI-1 renal, with KM12 colon, in the assay on U251 CNS and with HOP-62 NSCLC was greater than 100 µM in each case.
As for `Oc1cccnc1CN1CCCCC1`, the TGI in the assay with OVCAR-5 ovarian, in the assay with RPMI-8226 leukemia, in the assay with M14 melanoma, in the assay on NCI-H460 lung, in the assay on SNB-75 CNS and in the assay on SF-295 CNS was greater than 100 µM throughout. Moreover, the TGI in the assay on CAKI-1 renal, in the assay on KM12 colon, in the assay on U251 CNS and in the assay on HOP-62 NSCLC was greater than 100 µM throughout.
For `COc1cc2ncnc(Nc3ccc(C)c(O)c3)c2cc1OC`, the GI50 (as a rule, the concentration at which growth is held to half of that of the control) with OVCAR-5 ovarian is 16.2 µM; in the assay with RPMI-8226 leukemia it was greater than 25 µM; with M14 melanoma, 18.8 µM; with NCI-H460 lung, greater than 25 µM; in the assay with SNB-75 CNS it was 4.9 µM; in the assay on SF-295 CNS, greater than 25 µM. Further, the GI50 in the assay with CAKI-1 renal is 1.99 µM; with KM12 colon, greater than 25 µM; in the assay on U251 CNS it was 15.8 µM; in the assay with HOP-62 NSCLC it was greater than 25 µM. The TGI (in general, the concentration giving total growth inhibition) was greater than 25 µM in the assay with OVCAR-5 ovarian; greater than 25 µM with RPMI-8226 leukemia; greater than 25 µM with M14 melanoma; greater than 25 µM in the assay on NCI-H460 lung; greater than 24 µM with SNB-75 CNS; greater than 25 µM with SF-295 CNS. Besides, the TGI in the assay with CAKI-1 renal is greater than 17.5 µM; with KM12 colon, greater than 25 µM; in the assay with U251 CNS, greater than 25 µM; with HOP-62 NSCLC, greater than 25 µM.
On to `COc1ccc(C(=O)C(C(=O)CCC(=O)Nc2cccc(Cl)c2)c2ccc(OC)cc2)cc1` (stereo not given), for which the concentration for total growth inhibition (TGI) in the assay on OVCAR-5 ovarian, in the assay on RPMI-8226 leukemia, in the assay with M14 melanoma, in the assay on NCI-H460 lung, in the assay on SNB-75 CNS and in the assay on SF-295 CNS was greater than 100 µM in each case. Besides, the TGI with CAKI-1 renal, with KM12 colon, with U251 CNS and with HOP-62 NSCLC was greater than 100 µM throughout.
Take `O=C(NC1=CC(=O)c2ccccc2C1=O)c1ccccc1`: the GI50 was 1.18 µM in the assay on OVCAR-5 ovarian; 0.355 µM with RPMI-8226 leukemia; 0.874 µM in the assay on M14 melanoma; 0.643 µM in the assay on NCI-H460 lung; 0.373 µM in the assay on SNB-75 CNS; 2 µM in the assay with SF-295 CNS. The GI50 in the assay with CAKI-1 renal was 1.74 µM; with KM12 colon, 0.353 µM; in the assay with U251 CNS it was 0.42 µM; in the assay with HOP-62 NSCLC it was 2.76 µM. The TGI in the assay on OVCAR-5 ovarian is 15.5 µM; with RPMI-8226 leukemia, greater than 100 µM; in the assay on M14 melanoma it was 4.4 µM; in the assay with NCI-H460 lung, 13.1 µM; in the assay on SNB-75 CNS, 8.1 µM; with SF-295 CNS, 7.73 µM. For the same compound, the TGI with CAKI-1 renal was 3.54 µM; in the assay with KM12 colon, 11.5 µM; in the assay with U251 CNS it was 11.6 µM; with HOP-62 NSCLC, 16 µM.
As to `COc1ccc(Cn2cc3c(c2-c2ccccc2)CC(C)(C)c2cnoc2-3)cc1`, the GI50 was 4.39 µM with OVCAR-5 ovarian; 3.09 µM with RPMI-8226 leukemia; 2.03 µM in the assay with M14 melanoma; 2.17 µM in the assay on NCI-H460 lung; 1.63 µM with SNB-75 CNS; 0.732 µM with SF-295 CNS. In addition, the GI50 with CAKI-1 renal was 1.22 µM; with KM12 colon, 0.783 µM; in the assay on U251 CNS, 2.99 µM; in the assay with HOP-62 NSCLC, 4.05 µM. Also, the TGI in the assay with OVCAR-5 ovarian is greater than 100 µM; with RPMI-8226 leukemia, greater than 100 µM; in the assay with M14 melanoma, greater than 100 µM; in the assay with NCI-H460 lung, greater than 100 µM; in the assay on SNB-75 CNS, 6.15 µM; with SF-295 CNS, 11.6 µM. Further, the TGI in the assay on CAKI-1 renal, in the assay on KM12 colon, in the assay on U251 CNS and with HOP-62 NSCLC was greater than 100 µM throughout.
`Cc1nc(N)sc1C(=O)/C=C\c1ccc2c(c1)OCO2`: the total growth inhibition concentration (TGI) in the assay on OVCAR-5 ovarian, with RPMI-8226 leukemia, in the assay on M14 melanoma, with NCI-H460 lung, in the assay with SNB-75 CNS and in the assay on SF-295 CNS was greater than 100 µM each time. In addition, the TGI with CAKI-1 renal, in the assay on KM12 colon, in the assay with U251 CNS and with HOP-62 NSCLC was greater than 100 µM each time.
Regarding `Cc1cc(Cl)ccc1N=C1NC(=O)C(CC(=O)Nc2ccc([N+](=O)[O-])cc2[N+](=O)[O-])S1` (stereo not given), the concentration for total growth inhibition (TGI) was 86.8 µM with OVCAR-5 ovarian; 53.6 µM in the assay with RPMI-8226 leukemia; 59.8 µM in the assay with M14 melanoma; 84.9 µM with NCI-H460 lung; 44.2 µM in the assay on SNB-75 CNS; 59.5 µM in the assay with SF-295 CNS. Besides, the TGI in the assay on CAKI-1 renal is 54.3 µM; in the assay on KM12 colon, greater than 100 µM; in the assay with U251 CNS, 59.9 µM; in the assay on HOP-62 NSCLC, 85 µM.
For the compound `COc1nc2ccccc2cc1-c1nc2c(cnn2-c2ccc(Br)cc2)c(=O)[nH]1`, the GI50 was 0.798 µM in the assay on OVCAR-5 ovarian; 0.0402 µM in the assay with RPMI-8226 leukemia; 0.0204 µM in the assay with M14 melanoma; 0.0241 µM in the assay with NCI-H460 lung; 0.0161 µM with SNB-75 CNS; 0.0195 µM in the assay with SF-295 CNS. The GI50 is 0.0196 µM in the assay with CAKI-1 renal, 0.0226 µM in the assay with KM12 colon, 0.0241 µM in the assay on U251 CNS and 0.0363 µM in the assay with HOP-62 NSCLC. In addition, the TGI was greater than 50 µM with OVCAR-5 ovarian; 6.79 µM in the assay on RPMI-8226 leukemia; 2.33 µM in the assay on M14 melanoma; greater than 50 µM in the assay with NCI-H460 lung; 1.46 µM in the assay on SNB-75 CNS; 1.62 µM with SF-295 CNS. Further, the TGI in the assay with CAKI-1 renal is greater than 50 µM; with KM12 colon it was greater than 50 µM; in the assay on U251 CNS, 7.42 µM; in the assay on HOP-62 NSCLC, 7.39 µM.

Values taken from PubChem BioAssay (NCI).
